Literature values in patent US20210315817A1, “C[…] SELF-EMULSION SYSTEMS FOR INFUSED COMPOSITIONS” (HEXO […]., priority 2018, published 2021).

Conditions: individual emulsifier HLB value

Substance: polyoxyethylene sorbitan monolaurate [Tween ® 20]
- Emuls. HLB: 16.7
